Structures are written as SMILES. pIC50: −log10 of the molar value.

In the first assay the test system is 8XTBD luciferase reporter (YAP) in HEK293T cells. In words: YAP Reporter Assay. The assay is classed as cell-based. To be noted: Homo sapiens, HEK-293T; HEK293T cells stably transfected with 8XTBD luciferase reporter and pRLTK; 24-hr incubation; top concentration 3 μM; read-out: Firefly Luciferase IC50. On the technique in general: In a reporter assay the amount or activity of a reporter protein is the signal.
Consider `CCN(C#N)CCc1nnc(-c2ccccc2Nc2ccc(C(F)(F)F)cc2)o1` [Compound 96, N-ethyl-N-(2-(5-(2-((4-(trifluoromethyl)phenyl)amino)phenyl)-1,3,4-oxadiazol-2-yl)ethyl)cyanamide], for which the pIC50 was greater than 7.00. In the case of `O=C(NC1CC1)c1nnc(-c2ccccc2Nc2ccc(C(F)(F)F)cc2)o1` [Compound 195, N-cyclopropyl-5-(2-((4-(trifluoromethyl)phenyl)amino)phenyl)-1,3,4-oxadiazole-2-carboxamide], the pIC50 was 6.00 to 7.00.

Turning to `CN(C)c1nnc(-c2ccccc2Nc2ccc(C(F)(F)F)cc2)o1` [Compound 6, N,N-dimethyl-5-(2-((4-(trifluoromethyl)phenyl)amino)phenyl)-1,3,4-oxadiazol-2-amine], the pIC50 is 5.30 to 6.00. The same measure, in the same setting: next, `CC(C)(O)c1nnc(-c2ccccc2Nc2ccc(C(F)(F)F)cc2)o1` [Compound 42, 2-(5-(2-((4-(trifluoromethyl)phenyl)amino)phenyl)-1,3,4-oxadiazol-2-yl)propan-2-ol]: greater than 7.00. On the same count and under the same terms, next, `C=C(C)c1nnc(-c2ccccc2Nc2ccc(C(F)(F)F)cc2)o1` [Compound 133, 2-(5-(prop-1-en-2-yl)-1,3,4-oxadiazol-2-yl)-N-(4-(trifluoromethyl)phenyl)aniline]: 6.00 to 7.00; `CC(C)N(C#N)Cc1nnc(-c2ccccc2Nc2ccc(C(F)(F)F)cc2)o1` [Compound 99, N-isopropyl-N-((5-(2-((4-(trifluoromethyl)phenyl)amino)phenyl)-1,3,4-oxadiazol-2-yl)methyl)cyanamide]: 6.00 to 7.00. Still for that read-out and setting: next, `CN(C#N)C(C)(C)c1nnc(-c2ccccc2Nc2ccc(C(F)(F)F)cc2)o1` [Compound 158, N-methyl-N-(2-(5-(2-((4-(trifluoromethyl)phenyl)amino)phenyl)-1,3,4-oxadiazol-2-yl)propan-2-yl)cyanamide]: greater than 7.00; `N#CC1(Cc2nnc(-c3ccccc3Nc3ccc(C(F)(F)F)cc3)o2)CC1` [Compound 88, 1-((5-(2-((4-(trifluoromethyl)phenyl)amino)phenyl)-1,3,4-oxadiazol-2-yl)methyl)cyclopropane-1-carbonitrile]: 6.00 to 7.00; `CC(O)(CN)c1nnc(-c2ccccc2Nc2ccc(C(F)(F)F)cc2)o1` (stereo not shown) [Compound 134, 1-amino-2-(5-(2-((4-(trifluoromethyl)phenyl)amino)phenyl)-1,3,4-oxadiazol-2-yl)propan-2-ol]: 6.00 to 7.00.

On to `CON(C)C(=O)c1nnc(-c2ccccc2Nc2ccc(C(F)(F)F)cc2)o1` [Compound 192, N-methoxy-N-methyl-5-(2-((4-(trifluoromethyl)phenyl)amino)phenyl)-1,3,4-oxadiazole-2-carboxamide], for which the pIC50 is 6.00 to 7.00. `CN(C#N)C(C)(C)Cc1nnc(-c2ccccc2Nc2ccc(C(F)(F)F)cc2)o1` [Compound 143, N-methyl-N-(2-methyl-1-(5-(2-((4-(trifluoromethyl)phenyl)amino)phenyl)-1,3,4-oxadiazol-2-yl)propan-2-yl)cyanamide]: the pIC50 was 5.30 to 6.00. As for `CNC1(c2nnc(-c3ccccc3Nc3ccc(C(F)(F)F)cc3)o2)CC1` [Compound 153, 2-(5-(1-(methylamino)cyclopropyl)-1,3,4-oxadiazol-2-yl)-N-(4-(trifluoromethyl)phenyl)aniline], the pIC50 was 6.00 to 7.00. Turning to `FC(F)(F)c1ccc(Nc2ccccc2-c2nnc(-c3cocn3)o2)cc1` [Compound 36, 2-(5-(oxazol-4-yl)-1,3,4-oxadiazol-2-yl)-N-(4-(trifluoromethyl)phenyl)aniline], the pIC50 is 6.00 to 7.00.

Consider `OCCNc1nnc(-c2ccccc2Nc2ccc(C(F)(F)F)cc2)o1` [Compound 10, 2-((5-(2-((4-(trifluoromethyl)phenyl)amino)phenyl)-1,3,4-oxadiazol-2-yl)amino)ethan-1-ol], for which the pIC50 was 6.00 to 7.00. The same measure, in the same setting: next, `O=C(NCCO)c1nnc(-c2ccccc2Nc2ccc(C(F)(F)F)cc2)o1` [Compound 191, N-(2-hydroxyethyl)-5-(2-((4-(trifluoromethyl)phenyl)amino)phenyl)-1,3,4-oxadiazole-2-carboxamide]: greater than 7.00. `CC(C)(C#N)Cc1nnc(-c2ccccc2Nc2ccc(C(F)(F)F)cc2)o1` [Compound 89, 2,2-dimethyl-3-(5-(2-((4-(trifluoromethyl)phenyl)amino)phenyl)-1,3,4-oxadiazol-2-yl)propanenitrile]: the pIC50 was 6.00 to 7.00. In the case of `CNc1nnc(-c2ccccc2Nc2ccc(C(F)(F)F)cc2)o1` [Compound 12, N-methyl-5-(2-((4-(trifluoromethyl)phenyl)amino)phenyl)-1,3,4-oxadiazol-2-amine], the pIC50 was 6.00 to 7.00. Still for that read-out and setting: the value for `CC(C)(CO)c1nnc(-c2ccccc2Nc2ccc(C(F)(F)F)cc2)o1` [Compound 45, 2-methyl-2-(5-(2-((4-(trifluoromethyl)phenyl)amino)phenyl)-1,3,4-oxadiazol-2-yl)propan-1-ol] was greater than 7.00; that for `CNC(C)c1nnc(-c2ccccc2Nc2ccc(C(F)(F)F)cc2)o1` (stereo not shown) [Compound 159, 2-(5-(1-(methylamino)ethyl)-1,3,4-oxadiazol-2-yl)-N-(4-(trifluoromethyl)phenyl)aniline] was 6.00 to 7.00; that for `NC(=O)NC1(c2nnc(-c3ccccc3Nc3ccc(C(F)(F)F)cc3)o2)CC1` [Compound 62, 1-(1-(5-(2-((4-(trifluoromethyl)phenyl)amino)phenyl)-1,3,4-oxadiazol-2-yl)cyclopropyl)urea] was 6.00 to 7.00. On to `N#CCc1nnc(-c2ccccc2Nc2ccc(C(F)(F)F)cc2)o1` [Compound 137, 2-(5-(2-((4-(trifluoromethyl)phenyl)amino)phenyl)-1,3,4-oxadiazol-2-yl)acetonitrile], for which the pIC50 was 6.00 to 7.00. Same read-out and setting: next, `[N-]=[N+]=NCc1nnc(-c2ccccc2Nc2ccc(C(F)(F)F)cc2)o1` [Compound 31, 2-[5-(azidomethyl)-1,3,4-oxadiazol-2-yl]-N-[4-(trifluoromethyl)phenyl]aniline]: 6.00 to 7.00; `C/C=C/c1nnc(-c2ccccc2Nc2ccc(C(F)(F)F)cc2)o1` [Compound 117, (E)-2-(5-(prop-1-en-1-yl)-1,3,4-oxadiazol-2-yl)-N-(4-(trifluoromethyl)phenyl)aniline]: 6.00 to 7.00; `CCOC(=O)CN(C)c1nnc(-c2ccccc2Nc2ccc(C(F)(F)F)cc2)o1` [Compound 11, ethyl N-methyl-N-(5-(2-((4-(trifluoromethyl)phenyl)amino)phenyl)-1,3,4-oxadiazol-2-yl)glycinate]: 6.00 to 7.00. Same read-out and setting: the value for `COC1(c2nnc(-c3ccccc3Nc3ccc(C(F)(F)F)cc3)o2)CC1` [Compound 67, 2-(5-(1-methoxycyclopropyl)-1,3,4-oxadiazol-2-yl)-N-(4-(trifluoromethyl)phenyl) aniline] was greater than 7.00. On to `C#CCOc1nnc(-c2ccccc2Nc2ccc(C(F)(F)F)cc2)o1` [Compound 83, 2-(5-(prop-2-yn-1-yloxy)-1,3,4-oxadiazol-2-yl)-N-(4-(trifluoromethyl)phenyl)aniline], for which the pIC50 was greater than 7.00.

Regarding `CC1(c2nnc(-c3ccccc3Nc3ccc(C(F)(F)F)cc3)o2)CO1` (stereo not shown) [Compound 132, 2-(5-(2-methyloxiran-2-yl)-1,3,4-oxadiazol-2-yl)-N-(4-(trifluoromethyl)phenyl)aniline], the pIC50 was greater than 7.00. Still for that read-out and setting: the value for `CC(C)(C)OC(=O)N1C(=O)OCC1c1nnc(-c2ccccc2Nc2ccc(C(F)(F)F)cc2)o1` (stereo not shown) [Compound 26] was greater than 7.00. With `OCc1nnc(-c2ccccc2Nc2ccc(C(F)(F)F)cc2)o1` [Compound 5, (5-(2-((4-(trifluoromethyl)phenyl)amino)phenyl)-1,3,4-oxadiazol-2-yl)methanol], the pIC50 was greater than 7.00. Consider `C#CCNC(=O)c1nnc(-c2ccccc2Nc2ccc(C(F)(F)F)cc2)o1` [Compound 116, N-(prop-2-yn-1-yl)-5-(2-((4-(trifluoromethyl)phenyl)amino)phenyl)-1,3,4-oxadiazole-2-carboxamide], for which the pIC50 was greater than 7.00. The same measure, in the same setting: next, `COCCNC(=O)c1nnc(-c2ccccc2Nc2ccc(C(F)(F)F)cc2)o1` [Compound 190, N-(2-methoxyethyl)-5-(2-((4-(trifluoromethyl)phenyl)amino)phenyl)-1,3,4-oxadiazole-2-carboxamide]: greater than 7.00; `Cc1ccc(S(=O)(=O)N2C(=O)OCC2c2nnc(-c3ccccc3Nc3ccc(C(F)(F)F)cc3)o2)cc1` (stereo not shown) [Compound 16, 3-tosyl-4-(5-(2-((4-(trifluoromethyl)phenyl)amino)phenyl)-1,3,4-oxadiazol-2-yl)oxazolidin-2-one]: 6.00 to 7.00; `C#CCCNC(=O)c1nnc(-c2ccccc2Nc2ccc(C(F)(F)F)cc2)o1` [Compound 115, N-(but-3-yn-1-yl)-5-(2-((4-(trifluoromethyl)phenyl)amino)phenyl)-1,3,4-oxadiazole-2-carboxamide]: greater than 7.00. In the case of `CN(C#N)CCCc1nnc(-c2ccccc2Nc2ccc(C(F)(F)F)cc2)o1` [Compound 129, N-methyl-N-(3-(5-(2-((4-(trifluoromethyl)phenyl)amino)phenyl)-1,3,4-oxadiazol-2-yl)propyl)cyanamide], the pIC50 is greater than 7.00.

Staying with this assay, now noted: Homo sapiens, HEK-293T; […]; 24-hr incubation; top concentration 3 μM; read-out: Firefly Luciferase IC50.
In the case of `CS(=O)(=O)C1(c2nnc(-c3ccccc3Nc3ccc(C(F)(F)F)cc3)o2)CC1` [Compound 66, 2-[5-(1-methylsulfonylcyclopropyl)-1,3,4-oxadiazol-2-yl]-N-[4-(trifluoromethyl)phenyl]aniline], the pIC50 was greater than 7.00. With `CS(=O)(=O)Nc1nnc(-c2ccccc2Nc2ccc(C(F)(F)F)cc2)o1` [Compound 38, N-(5-(2-((4-(trifluoromethyl)phenyl)amino)phenyl)-1,3,4-oxadiazol-2-yl)methanesulfonamide], the pIC50 was 6.00 to 7.00. Consider `OC(CCl)Cc1nnc(-c2ccccc2Nc2ccc(C(F)(F)F)cc2)o1` (stereo not shown) [Compound 79, 1-chloro-3-(5-(2-((4-(trifluoromethyl)phenyl)amino)phenyl)-1,3,4-oxadiazol-2-yl)propan-2-ol], for which the pIC50 is greater than 7.00.

In general, pIC50 refers to −log10 of the IC50, conventionally taken in molar units.

The values above are taken from patent publication US11661403B2, “Oxadiazole compounds” (Vivace Therapeutics, Inc., priority 2018, dated 2023).
